In ChEMBL document CHEMBL6182949 (J Med Chem, 2025):

Tests used:
[1] = target: T1, Protein cereblon/Interleukin-1 receptor-associated kinase 4 (Homo sapiens, UniProt Q9NWZ3+Q96SW2); test: PROTAC activity at CRBN/IRAK4 in human THP-1 cells assessed as induction of IRAK4 degradation incubated for 24 hrs by HiBiT lytic reagent based analysis; format: cell-based
Target sequence in this assay (Q9NWZ3 whole entry): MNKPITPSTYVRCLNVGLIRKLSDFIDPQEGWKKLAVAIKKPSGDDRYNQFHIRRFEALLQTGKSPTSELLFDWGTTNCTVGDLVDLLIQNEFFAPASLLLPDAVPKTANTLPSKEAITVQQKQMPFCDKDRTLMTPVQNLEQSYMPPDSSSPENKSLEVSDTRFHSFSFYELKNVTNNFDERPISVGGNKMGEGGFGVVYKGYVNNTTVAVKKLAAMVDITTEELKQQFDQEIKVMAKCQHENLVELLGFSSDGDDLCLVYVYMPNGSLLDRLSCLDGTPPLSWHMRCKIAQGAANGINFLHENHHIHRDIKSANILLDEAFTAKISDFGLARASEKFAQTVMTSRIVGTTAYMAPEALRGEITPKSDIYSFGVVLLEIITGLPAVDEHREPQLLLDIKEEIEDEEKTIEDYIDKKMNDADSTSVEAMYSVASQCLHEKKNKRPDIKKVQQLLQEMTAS
Target sequence in this assay (Q96SW2 whole entry): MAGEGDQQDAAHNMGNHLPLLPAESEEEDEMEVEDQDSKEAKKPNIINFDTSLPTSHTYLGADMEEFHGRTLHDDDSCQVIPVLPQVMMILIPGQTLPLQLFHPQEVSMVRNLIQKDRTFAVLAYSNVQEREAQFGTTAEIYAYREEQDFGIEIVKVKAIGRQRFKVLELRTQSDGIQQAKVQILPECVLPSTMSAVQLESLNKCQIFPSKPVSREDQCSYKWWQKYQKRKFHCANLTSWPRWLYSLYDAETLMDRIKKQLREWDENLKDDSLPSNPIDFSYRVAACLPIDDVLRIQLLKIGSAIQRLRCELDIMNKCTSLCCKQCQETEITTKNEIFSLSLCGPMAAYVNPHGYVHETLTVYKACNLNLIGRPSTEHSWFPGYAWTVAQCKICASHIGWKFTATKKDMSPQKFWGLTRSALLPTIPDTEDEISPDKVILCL

hERG (KCNH2) [2] = target: T2, hERG (KCNH2) (Homo sapiens, UniProt Q12809); test: Inhibition of hERG expressed in HEK293 cells at 3 uM by manual patch clamp assay relative to control; format: toxicity, cell-based; conditions: HEK293 cells expressing hERG
[3] = target: T1, Protein cereblon/Interleukin-1 receptor-associated kinase 4; test: PROTAC activity at CRBN/IRAK4 in human THP-1 cells assessed as induction of IRAK4 degradation incubated for 24 hrs by HiBiT lytic reagent based analysis relative to control; format: cell-based
Target sequence in this assay (Q96SW2 whole entry, looked up): as the sequence (Q96SW2 whole entry) above
Target sequence in this assay (Q9NWZ3 whole entry, looked up): as the sequence (Q9NWZ3 whole entry) above

[4] = Metabolic stability in dog liver microsome assessed as half life at 1 uM measured up to 60 mins in presence of NADPH by LC-MS/MS analysis; format: ADME, Canis lupus familiaris; conditions: liver microsomes
[5] = Metabolic stability in human liver microsome assessed as half life at 1 uM measured up to 60 mins in presence of NADPH by LC-MS/MS analysis; format: ADME; conditions: liver microsomes
[6] = Metabolic stability in mouse liver microsome assessed as half life at 1 uM measured up to 60 mins in presence of NADPH by LC-MS/MS analysis; format: ADME; conditions: liver microsomes
[7] = Metabolic stability in rat liver microsome assessed as half life at 1 uM measured up to 60 mins in presence of NADPH by LC-MS/MS analysis; format: ADME; conditions: liver microsomes
[8] = Metabolic stability in cynomolgus monkey liver microsome assessed as half life at 1 uM measured up to 60 mins in presence of NADPH by LC-MS/MS analysis; format: ADME, Macaca fascicularis; conditions: liver microsomes
hERG (KCNH2) [9] = target: T2, hERG (KCNH2); test: Inhibition of hERG expressed in HEK293 cells at 1 uM by manual patch clamp assay relative to control; format: toxicity, cell-based; conditions: HEK293 cells expressing hERG

T2 sequence (Q12809 whole entry): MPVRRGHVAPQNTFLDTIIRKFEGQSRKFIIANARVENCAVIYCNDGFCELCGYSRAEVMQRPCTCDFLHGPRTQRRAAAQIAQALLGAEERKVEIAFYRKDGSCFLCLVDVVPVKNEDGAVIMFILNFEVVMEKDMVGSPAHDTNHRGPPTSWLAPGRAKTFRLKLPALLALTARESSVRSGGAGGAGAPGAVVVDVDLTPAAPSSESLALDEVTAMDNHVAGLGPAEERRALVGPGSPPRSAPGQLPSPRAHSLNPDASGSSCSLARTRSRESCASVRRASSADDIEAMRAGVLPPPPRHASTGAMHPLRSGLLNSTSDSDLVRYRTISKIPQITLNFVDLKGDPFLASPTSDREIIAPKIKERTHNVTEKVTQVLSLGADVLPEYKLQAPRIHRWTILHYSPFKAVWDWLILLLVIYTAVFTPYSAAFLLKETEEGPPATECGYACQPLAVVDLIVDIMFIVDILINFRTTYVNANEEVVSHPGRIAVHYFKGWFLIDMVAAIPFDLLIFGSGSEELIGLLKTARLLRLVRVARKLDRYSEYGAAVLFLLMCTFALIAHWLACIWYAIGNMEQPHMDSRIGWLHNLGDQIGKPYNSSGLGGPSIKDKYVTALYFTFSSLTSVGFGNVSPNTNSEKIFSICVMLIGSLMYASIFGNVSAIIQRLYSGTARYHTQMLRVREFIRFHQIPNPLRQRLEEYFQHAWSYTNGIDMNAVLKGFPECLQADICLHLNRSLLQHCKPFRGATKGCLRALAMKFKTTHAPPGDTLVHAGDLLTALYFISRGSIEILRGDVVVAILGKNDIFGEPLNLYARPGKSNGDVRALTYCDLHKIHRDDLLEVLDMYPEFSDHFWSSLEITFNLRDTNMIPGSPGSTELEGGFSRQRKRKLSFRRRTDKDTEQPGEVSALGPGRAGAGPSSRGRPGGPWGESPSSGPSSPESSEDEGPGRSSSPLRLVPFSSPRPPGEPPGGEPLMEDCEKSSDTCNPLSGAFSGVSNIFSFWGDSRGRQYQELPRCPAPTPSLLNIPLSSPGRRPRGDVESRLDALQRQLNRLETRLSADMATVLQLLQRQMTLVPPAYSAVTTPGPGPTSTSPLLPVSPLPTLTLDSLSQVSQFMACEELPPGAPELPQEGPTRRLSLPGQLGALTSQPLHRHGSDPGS

Cn1c(=O)n(C2CCC(=O)NC2=O)c2cccc(C#CCO[C@H]3CC[C@H](CN4CCC5(CC4)Cc4cc(NC(=O)c6cnn7cccnc67)c(N6CCC(CO)CC6)cc4C5)CC3)c21 (stereo partly drawn)
DC50 [1]: 2.77 nM | inhibition at 3 µM (hERG (KCNH2) [2]): 46% | Emax [3]: 78%

Cn1c(=O)n(C2CCC(=O)NC2=O)c2cccc(C#CCO[C@H]3CC[C@H](CN4CCC5(CC4)Oc4cc(NC(=O)c6cnn7cccnc67)c(N6CCC(CO)CC6)cc4O5)CC3)c21 (stereo partly drawn)
DC50 [1]: 10.4 nM | Emax [3]: 78%

Cn1c(=O)n(C2CCC(=O)NC2=O)c2cccc(C#CCO[C@H]3CC[C@H](CN4CCC5(CC4)Cc4cc(NC(=O)c6cnn7cc(Cl)cnc67)c(N6CCC(CO)CC6)cc4O5)CC3)c21 (stereo partly drawn)
DC50 [1]: 2.27 nM | half-life at 1 µM [4]: > 3.07 h | inhibition at 3 µM (hERG (KCNH2) [2]): 2% | Emax [3]: 87% | half-life at 1 µM [5]: > 3.07 h | half-life at 1 µM [6]: 1.3 h | half-life at 1 µM [7]: 2.1 h | half-life at 1 µM [8]: 1.87 h

Cc1cc(-c2nc(C(=O)Nc3cc4c(cc3N3CCC(CO)CC3)OC3(CCN(C[C@H]5CC[C@H](OCC#Cc6cccc7c6n(C)c(=O)n7C6CCC(=O)NC6=O)CC5)CC3)C4)co2)ccn1 (stereo partly drawn)
DC50 [1]: 6.02 nM | half-life at 1 µM [4]: > 3.07 h | inhibition at 1 µM (hERG (KCNH2) [9]): 12% | Emax [3]: 85% | half-life at 1 µM [5]: 1.15 h | half-life at 1 µM [6]: 1.68 h

Cn1c(=O)n(C2CCC(=O)NC2=O)c2cccc(C#CCO[C@H]3CC[C@H](CN4CCC5(Cc6cc(NC(=O)c7cnn8cccnc78)c(N7CCC(CO)CC7)cc6O5)C4)CC3)c21 (stereo partly drawn)
DC50 [1]: 2 nM | half-life at 1 µM [4]: > 3.07 h | inhibition at 1 µM (hERG (KCNH2) [9]): 1% | Emax [3]: 84% | half-life at 1 µM [5]: 1.67 h | half-life at 1 µM [6]: > 3.07 h

Cn1c(=O)n(C2CCC(=O)NC2=O)c2cccc(C#CCO[C@H]3CC[C@@](F)(CN4CCC5(CC4)Cc4cc(NC(=O)c6cnn7cccnc67)c(N6CCC(CO)CC6)cc4O5)CC3)c21 (stereo partly drawn)
DC50 [1]: 14.8 nM | half-life at 1 µM [4]: 0.0167 h | inhibition at 1 µM (hERG (KCNH2) [9]): 8% | Emax [3]: 91% | half-life at 1 µM [5]: 0.117 h | half-life at 1 µM [6]: 0.267 h

Cn1c(=O)n(C2CCC(=O)NC2=O)c2cccc(C#CCO[C@H]3CC[C@H](CN4CCC5(CC4)Cc4cc(NC(=O)c6cnn7cccnc67)c(N6CCC(F)CC6)cc4O5)CC3)c21 (stereo partly drawn)
DC50 [1]: 6.38 nM | Emax [3]: 85%

CN(CCO)c1cc2c(cc1NC(=O)c1cnn3cccnc13)CC1(CCN(C[C@H]3CC[C@H](OCC#Cc4cccc5c4n(C)c(=O)n5C4CCC(=O)NC4=O)CC3)CC1)O2 (stereo partly drawn)
DC50 [1]: 6.44 nM | Emax [3]: 44%

Cn1c(=O)n(C2CCC(=O)NC2=O)c2cccc(C#CCO[C@H]3CC[C@H](CN4CCC5(CC4)Cc4cc(NC(=O)c6cnn7cc(CO)cnc67)c(N6CCC(CO)CC6)cc4O5)CC3)c21 (stereo partly drawn)
DC50 [1]: 3.32 nM | half-life at 1 µM [4]: > 3.07 h | inhibition at 1 µM (hERG (KCNH2) [9]): 4% | Emax [3]: 90% | half-life at 1 µM [5]: > 3.07 h | half-life at 1 µM [6]: 1.3 h | half-life at 1 µM [7]: > 3.07 h | half-life at 1 µM [8]: > 3.07 h

Cn1c(=O)n(C2CCC(=O)NC2=O)c2cccc(C#CCO[C@H]3CC[C@@H](CN4CCC5(CC4)Cc4cc(NC(=O)c6cnn7cccnc67)c(N6CCC(CO)CC6)cc4O5)CC3)c21 (stereo partly drawn)
DC50 [1]: 3.44 nM | half-life at 1 µM [4]: 0.0167 h | inhibition at 1 µM (hERG (KCNH2) [9]): 34% | Emax [3]: 89% | half-life at 1 µM [5]: 0.817 h | half-life at 1 µM [6]: 1.98 h | half-life at 1 µM [7]: 1.47 h | half-life at 1 µM [8]: 0.183 h

Cn1c(=O)n(C2CCC(=O)NC2=O)c2cccc(C#CCO[C@H]3CC[C@H](C(=O)N4CCC5(CC4)Cc4cc(NC(=O)c6cnn7cccnc67)c(N6CCC(CO)CC6)cc4O5)CC3)c21 (stereo partly drawn)
DC50 [1]: 2.78 nM | half-life at 1 µM [4]: > 3.07 h | inhibition at 1 µM (hERG (KCNH2) [9]): 2% | Emax [3]: 86% | half-life at 1 µM [5]: 0.65 h | half-life at 1 µM [6]: 1.05 h

Cn1c(=O)n(C2CCC(=O)NC2=O)c2cccc(C#CCOC3CCN(CC(=O)N4CCC5(CC4)Cc4cc(NC(=O)c6cnn7cccnc67)c(N6CCC(CO)CC6)cc4O5)CC3)c21 (stereo not drawn)
DC50 [1]: 2.18 nM | half-life at 1 µM [4]: 0.2 h | inhibition at 3 µM (hERG (KCNH2) [2]): 8% | half-life at 1 µM [5]: 0.15 h | half-life at 1 µM [6]: 1.67 h

Cn1c(=O)n(C2CCC(=O)NC2=O)c2cccc(C#CCN3CCN(CC(=O)N4CCC5(CC4)Cc4cc(NC(=O)c6cnn7cccnc67)c(N6CCC(CO)CC6)cc4O5)CC3)c21 (stereo not drawn)
DC50 [1]: 2.76 nM | half-life at 1 µM [4]: 1.22 h | inhibition at 3 µM (hERG (KCNH2) [2]): 18% | half-life at 1 µM [5]: 0.05 h | half-life at 1 µM [6]: 1.4 h

Cn1c(=O)n(C2CCC(=O)NC2=O)c2cccc(C#CCO[C@H]3CC[C@H](CN4CCC5(CC4)Cc4cc(NC(=O)c6cnn7cccnc67)c(OCCC(C)(C)O)cc4O5)CC3)c21 (stereo partly drawn)
DC50 [1]: 9.37 nM | Emax [3]: 49%

Cn1c(=O)n(C2CCC(=O)NC2=O)c2cccc(C#CCO[C@H]3CC[C@@H](CN4CCC5(CC4)Cc4cc(NC(=O)c6coc7cccnc67)c(N6CCC(CO)CC6)cc4O5)CC3)c21 (stereo partly drawn)
DC50 [1]: 3.69 nM | half-life at 1 µM [4]: 0.967 h | inhibition at 1 µM (hERG (KCNH2) [9]): 29% | Emax [3]: 86% | half-life at 1 µM [5]: 0.333 h | half-life at 1 µM [6]: 2.05 h

Cn1c(=O)n(C2CCC(=O)NC2=O)c2cccc(C#CCO[C@H]3CC[C@](F)(CN4CCC5(CC4)Cc4cc(NC(=O)c6cnn7cccnc67)c(N6CCC(CO)CC6)cc4O5)CC3)c21 (stereo partly drawn)
half-life at 1 µM [4]: > 3.07 h | inhibition at 3 µM (hERG (KCNH2) [2]): 8% | Emax [3]: 88% | half-life at 1 µM [5]: > 3.07 h | half-life at 1 µM [6]: > 3.07 h

COCC1CCN(c2cc3c(cc2NC(=O)c2cnn4cccnc24)CC2(CCN(C[C@H]4CC[C@H](OCC#Cc5cccc6c5n(C)c(=O)n6C5CCC(=O)NC5=O)CC4)CC2)O3)CC1 (stereo partly drawn)
DC50 [1]: 3.9 nM | Emax [3]: 62%

Cn1c(=O)n(C2CCC(=O)NC2=O)c2cccc(C#CCOC3CCN(CCN4CCC5(CC4)Cc4cc(NC(=O)c6cnn7cccnc67)c(N6CCC(CO)CC6)cc4O5)CC3)c21 (stereo not drawn)
DC50 [1]: 2.18 nM | half-life at 1 µM [4]: 1.47 h | Emax [3]: 88% | half-life at 1 µM [5]: 0.383 h | half-life at 1 µM [6]: > 3.07 h | half-life at 1 µM [7]: 1.47 h | half-life at 1 µM [8]: 0.0333 h

Cn1c(=O)n(C2CCC(=O)NC2=O)c2cccc(C#CCO[C@H]3CC[C@H](CN4CCC5(CC4)Cc4cc(NC(=O)c6cnn7cccnc67)c(OC(F)F)cc4O5)CC3)c21 (stereo partly drawn)
DC50 [1]: 13 nM | Emax [3]: 83%

CN(CCCO)c1cc2c(cc1NC(=O)c1cnn3cccnc13)CC1(CCN(C[C@H]3CC[C@H](OCC#Cc4cccc5c4n(C)c(=O)n5C4CCC(=O)NC4=O)CC3)CC1)O2 (stereo partly drawn)
DC50 [1]: 6.92 nM | Emax [3]: 68%

Cn1c(=O)n(C2CCC(=O)NC2=O)c2cccc(C#CCO[C@H]3CC[C@H](CN4CCC5(CC4)Oc4cc(N6CCC(CO)CC6)c(NC(=O)c6cnn7cccnc67)cc4C5=O)CC3)c21 (stereo partly drawn)
DC50 [1]: 1000 nM | Emax [3]: 20%

Cn1c(=O)n(C2CCC(=O)NC2=O)c2cccc(C#CCOC3CCN(C(=O)CN4CCC5(CC4)Cc4cc(NC(=O)c6cnn7cccnc67)c(N6CCC(CO)CC6)cc4O5)CC3)c21 (stereo not drawn)
DC50 [1]: 1.92 nM | half-life at 1 µM [4]: 0.1 h | half-life at 1 µM [5]: 0.0667 h | half-life at 1 µM [6]: 0.35 h

Cn1c(=O)n(C2CCC(=O)NC2=O)c2cccc(C#CCO[C@H]3CC[C@H](CN4CCC5(CCc6cc(NC(=O)c7cnn8cccnc78)c(N7CCC(CO)CC7)cc6O5)CC4)CC3)c21 (stereo partly drawn)
DC50 [1]: 8.48 nM | Emax [3]: 46%

Cc1cnc2c(C(=O)Nc3cc4c(cc3N3CCC(CO)CC3)OC3(CCN(C[C@H]5CC[C@H](OCC#Cc6cccc7c6n(C)c(=O)n7C6CCC(=O)NC6=O)CC5)CC3)C4)cnn2c1 (stereo partly drawn)
DC50 [1]: 1.52 nM | half-life at 1 µM [4]: > 3.07 h | inhibition at 3 µM (hERG (KCNH2) [2]): 17% | Emax [3]: 87% | half-life at 1 µM [5]: > 3.07 h | half-life at 1 µM [6]: > 3.07 h

Cn1c(=O)n(C2CCC(=O)NC2=O)c2cccc(C#CCO[C@H]3CC[C@@H](CN4CCC5(Cc6cc(NC(=O)c7cnn8cccnc78)c(N7CCC(CO)CC7)cc6O5)C4)CC3)c21 (stereo partly drawn)
DC50 [1]: 7.79 nM | half-life at 1 µM [4]: 0.583 h | inhibition at 1 µM (hERG (KCNH2) [9]): 29% | Emax [3]: 90% | half-life at 1 µM [5]: 0.517 h | half-life at 1 µM [6]: 0.55 h
